# Calls of active or inactive are those of the source.
# What was measured:
# [1] = target: Photoreceptor-specific nuclear receptor (Homo sapiens, UniProt Q9Y5X4); assay: NR2E3 inverse agonists, dose response, biochemical, TR-FRET (AID 463256); format: functional
# [2] = target: Voltage-gated inwardly rectifying potassium channel KCNH2 (Homo sapiens, UniProt Q12809); assay: hERG protection from proarrhythmic block, potency, dose response, cell-based, thallium flux (AID 2121); format: ADME
# [3] = target: Peroxisome proliferator-activated receptor gamma/Nuclear receptor corepressor 2 (Homo sapiens, UniProt P37231+Q9Y618); assay: Counterscreen for NR2E3 inverse agonists: TR-FRET-based biochemical high throughput dose response assay to identify inverse agonists of the interaction between peroxisome proliferator-activated receptor gamma (PPARg) and nuclear receptor co-repressor 2 (NCOR2).; format: functional
# NADPH oxidase 1 = target: T1, NADPH oxidase 1 (Homo sapiens, UniProt Q9Y5S8); assay: Late-stage luminescence-based cell-based dose response assay to identify inhibitors of NADPH oxidase 1 (NOX1): Purchased analogs 2.; format: functional
# T1 sequence (Q9Y5S8 whole entry): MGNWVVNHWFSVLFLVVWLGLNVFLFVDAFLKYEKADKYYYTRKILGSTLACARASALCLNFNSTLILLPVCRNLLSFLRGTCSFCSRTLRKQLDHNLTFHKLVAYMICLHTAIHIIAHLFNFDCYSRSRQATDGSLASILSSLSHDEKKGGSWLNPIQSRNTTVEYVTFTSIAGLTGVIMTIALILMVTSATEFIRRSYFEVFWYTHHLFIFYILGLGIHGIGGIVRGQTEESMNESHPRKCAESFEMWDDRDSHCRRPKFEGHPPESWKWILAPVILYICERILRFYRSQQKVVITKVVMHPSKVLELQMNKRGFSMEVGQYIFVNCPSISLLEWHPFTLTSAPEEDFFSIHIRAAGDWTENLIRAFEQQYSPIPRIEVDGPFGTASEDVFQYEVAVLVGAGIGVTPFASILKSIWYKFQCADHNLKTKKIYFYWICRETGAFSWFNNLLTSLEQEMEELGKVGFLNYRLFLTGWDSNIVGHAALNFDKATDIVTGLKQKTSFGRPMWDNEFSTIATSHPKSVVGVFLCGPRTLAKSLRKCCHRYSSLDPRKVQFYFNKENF
# [4] = Vero cell cytotoxicity, dose response, cytotoxicity control for Vif-APOBEC3G degradation inhibitor project, Vero cells (AID 1117358); format: functional; conditions: Human immunodeficiency virus 1, Vero
# [5] = target: T2, High affinity choline transporter 1 (Homo sapiens, UniProt Q9GZV3); assay: CHT inhibitors, dose response, cell-based, 5-point CRC, membrane potential dye (AID 504840); format: functional
# T2 sequence (Q9GZV3 whole entry): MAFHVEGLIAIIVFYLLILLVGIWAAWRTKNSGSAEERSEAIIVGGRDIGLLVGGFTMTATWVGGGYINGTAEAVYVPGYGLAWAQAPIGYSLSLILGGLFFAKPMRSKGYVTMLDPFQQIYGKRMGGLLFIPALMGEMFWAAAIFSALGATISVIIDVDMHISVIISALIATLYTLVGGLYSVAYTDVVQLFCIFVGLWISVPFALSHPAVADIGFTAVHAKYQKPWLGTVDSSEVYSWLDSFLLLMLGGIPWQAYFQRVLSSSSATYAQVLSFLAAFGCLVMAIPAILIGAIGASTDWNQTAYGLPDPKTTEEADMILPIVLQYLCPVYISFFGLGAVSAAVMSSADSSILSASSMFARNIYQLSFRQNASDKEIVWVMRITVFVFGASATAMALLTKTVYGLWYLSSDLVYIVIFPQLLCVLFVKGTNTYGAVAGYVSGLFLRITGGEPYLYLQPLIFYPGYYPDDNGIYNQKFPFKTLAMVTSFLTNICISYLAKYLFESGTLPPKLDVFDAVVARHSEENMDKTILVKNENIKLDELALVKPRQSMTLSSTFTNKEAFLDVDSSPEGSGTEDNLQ
# [6] = target: T2, High affinity choline transporter 1; assay: CHT inhibitors, dose response, cell-based, 10-point CRC, membrane potential dye (AID 588401); format: functional;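 note: membrane potential dye fluorescence of choline-evoked depolarization via CHT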
# [7] = target: Fructose-bisphosphate aldolase (Mycobacterium tuberculosis, UniProt P9WQA3); assay: Fluorescence-based biochemical high throughput dose response assay for inhibitors of the fructose-bisphosphate aldolase (FBA) of M. tuberculosis.; format: functional
# Vero [8] = assay: cells; format: functional; conditions: Chlorocebus sabaeus
# Vero [9] = assay: West Nile virus antiviral activity, cell-based, CPE readout (AID 1621); format: functional; conditions: Chlorocebus sabaeus
# Vero [10] = assay: cells; format: functional, cell-based; conditions: Chlorocebus sabaeus
# [11] = Fluorescence Cell-Based Dose Response to Identify Inhibitors of Thrombin Receptor-Activating Peptide SFLLRN-Mediated P-Selectin Induction on Platelets. [Related pubchem assays: 1663 (Primary HTS), 1889 (retest at dose ), 1891 (counterscreen), 1678 (Project Summary)]; format: functional
# [12] = Luminescence Cell-Based Dose Confirmation HTS to Identify Inhibitors of Platelet Dense Granule Release. [Related pubchem assays: 1663 (Primary HTS), 1678 (Summary of Project)]; format: functional
# [13] = target: Luciferin 4-monooxygenase (Photinus pyralis, UniProt P08659); assay: firefly luciferase enzyme inhibitors, dose response, biochemical, luminescence (AID 1891)
# [14] = target: T3, Tyrosine-protein phosphatase non-receptor type 7 (Homo sapiens, UniProt P35236); assay: inhibitors of human HePTP phosphatase, […], biochemical, absorbance, leukemia target (AID 521); format: functional
# T3 sequence (P35236 whole entry): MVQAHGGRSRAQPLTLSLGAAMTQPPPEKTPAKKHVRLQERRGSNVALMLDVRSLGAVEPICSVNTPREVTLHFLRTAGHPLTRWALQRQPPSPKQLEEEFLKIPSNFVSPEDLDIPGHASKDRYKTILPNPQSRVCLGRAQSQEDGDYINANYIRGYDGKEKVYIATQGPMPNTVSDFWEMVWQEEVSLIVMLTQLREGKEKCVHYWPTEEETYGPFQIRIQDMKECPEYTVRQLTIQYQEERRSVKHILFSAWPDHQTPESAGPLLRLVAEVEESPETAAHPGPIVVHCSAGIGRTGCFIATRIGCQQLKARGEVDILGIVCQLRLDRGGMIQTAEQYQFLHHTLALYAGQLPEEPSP
# [15] = target: Diphosphomevalonate decarboxylase (Streptococcus pneumoniae serotype 2 (strain D39 / NCTC 7466), UniProt Q9FD53); assay: S. pneumoniae DPM-DC inhibition retest, confirmation, biochemical, cuvette format, coupled NADH fluorescence (AID 1028); format: functional
# Diphosphomevalonate decarboxylase, sequence (Q9FD53 whole entry): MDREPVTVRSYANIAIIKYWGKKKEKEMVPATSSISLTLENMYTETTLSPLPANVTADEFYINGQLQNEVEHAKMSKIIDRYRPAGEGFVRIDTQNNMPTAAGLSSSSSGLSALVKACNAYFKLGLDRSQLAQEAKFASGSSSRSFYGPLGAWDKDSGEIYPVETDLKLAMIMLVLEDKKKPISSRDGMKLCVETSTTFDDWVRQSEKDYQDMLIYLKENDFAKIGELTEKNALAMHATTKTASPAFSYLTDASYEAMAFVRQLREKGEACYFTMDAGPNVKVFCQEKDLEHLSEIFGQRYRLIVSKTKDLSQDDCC
# Voltage-gated inwardly rectifying potassium channel KCNH2, sequence (Q12809 whole entry): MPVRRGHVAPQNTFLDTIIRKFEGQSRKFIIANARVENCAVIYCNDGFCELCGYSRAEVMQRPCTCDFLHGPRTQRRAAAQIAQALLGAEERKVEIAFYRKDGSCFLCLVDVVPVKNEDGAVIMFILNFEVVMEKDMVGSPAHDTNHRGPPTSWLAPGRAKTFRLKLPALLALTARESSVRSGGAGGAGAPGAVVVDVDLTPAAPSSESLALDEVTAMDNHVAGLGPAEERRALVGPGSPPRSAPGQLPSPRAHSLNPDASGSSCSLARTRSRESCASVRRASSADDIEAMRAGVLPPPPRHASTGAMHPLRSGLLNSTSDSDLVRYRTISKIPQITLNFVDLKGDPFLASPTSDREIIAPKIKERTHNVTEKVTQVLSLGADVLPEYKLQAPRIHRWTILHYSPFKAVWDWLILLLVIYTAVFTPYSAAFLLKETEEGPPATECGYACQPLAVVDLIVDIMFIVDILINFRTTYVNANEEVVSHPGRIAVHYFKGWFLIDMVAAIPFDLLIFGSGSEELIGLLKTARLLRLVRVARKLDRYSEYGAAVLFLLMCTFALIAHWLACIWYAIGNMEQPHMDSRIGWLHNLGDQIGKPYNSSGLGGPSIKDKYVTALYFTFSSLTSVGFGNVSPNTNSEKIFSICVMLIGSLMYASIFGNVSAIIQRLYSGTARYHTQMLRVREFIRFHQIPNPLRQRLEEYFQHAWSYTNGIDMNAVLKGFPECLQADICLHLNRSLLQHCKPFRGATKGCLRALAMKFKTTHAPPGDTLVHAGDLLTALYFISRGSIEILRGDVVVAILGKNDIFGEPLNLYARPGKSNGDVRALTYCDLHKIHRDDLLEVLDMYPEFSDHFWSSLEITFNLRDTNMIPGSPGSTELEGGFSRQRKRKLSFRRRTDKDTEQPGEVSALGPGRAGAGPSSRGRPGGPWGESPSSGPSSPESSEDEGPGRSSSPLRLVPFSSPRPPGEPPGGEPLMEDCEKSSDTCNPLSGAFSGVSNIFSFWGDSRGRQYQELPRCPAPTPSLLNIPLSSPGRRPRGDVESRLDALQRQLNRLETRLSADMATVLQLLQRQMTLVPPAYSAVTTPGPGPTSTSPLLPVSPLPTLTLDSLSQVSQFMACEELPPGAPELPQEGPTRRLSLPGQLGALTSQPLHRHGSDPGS
# Photoreceptor-specific nuclear receptor, sequence (Q9Y5X4 whole entry): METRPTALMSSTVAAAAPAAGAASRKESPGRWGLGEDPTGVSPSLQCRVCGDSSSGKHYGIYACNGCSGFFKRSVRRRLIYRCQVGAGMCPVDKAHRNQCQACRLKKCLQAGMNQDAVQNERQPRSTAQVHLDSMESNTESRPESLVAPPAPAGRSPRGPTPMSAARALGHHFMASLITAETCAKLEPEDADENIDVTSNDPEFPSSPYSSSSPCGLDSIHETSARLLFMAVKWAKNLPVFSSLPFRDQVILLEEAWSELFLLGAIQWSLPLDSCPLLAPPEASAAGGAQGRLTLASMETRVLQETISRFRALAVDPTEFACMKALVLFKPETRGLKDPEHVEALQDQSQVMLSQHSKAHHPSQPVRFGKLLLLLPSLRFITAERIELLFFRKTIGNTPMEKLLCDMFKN
# Fructose-bisphosphate aldolase, sequence (P9WQA3 whole entry): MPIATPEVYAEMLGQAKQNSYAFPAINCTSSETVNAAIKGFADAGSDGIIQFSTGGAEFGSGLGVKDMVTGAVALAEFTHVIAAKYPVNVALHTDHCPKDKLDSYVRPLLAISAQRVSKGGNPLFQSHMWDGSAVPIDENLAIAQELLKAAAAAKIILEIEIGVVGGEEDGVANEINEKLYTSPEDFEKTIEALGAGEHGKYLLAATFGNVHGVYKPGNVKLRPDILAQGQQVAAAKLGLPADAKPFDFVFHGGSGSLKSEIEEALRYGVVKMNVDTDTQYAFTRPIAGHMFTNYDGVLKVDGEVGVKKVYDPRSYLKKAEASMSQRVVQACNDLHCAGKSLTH
# Luciferin 4-monooxygenase, sequence (P08659 whole entry): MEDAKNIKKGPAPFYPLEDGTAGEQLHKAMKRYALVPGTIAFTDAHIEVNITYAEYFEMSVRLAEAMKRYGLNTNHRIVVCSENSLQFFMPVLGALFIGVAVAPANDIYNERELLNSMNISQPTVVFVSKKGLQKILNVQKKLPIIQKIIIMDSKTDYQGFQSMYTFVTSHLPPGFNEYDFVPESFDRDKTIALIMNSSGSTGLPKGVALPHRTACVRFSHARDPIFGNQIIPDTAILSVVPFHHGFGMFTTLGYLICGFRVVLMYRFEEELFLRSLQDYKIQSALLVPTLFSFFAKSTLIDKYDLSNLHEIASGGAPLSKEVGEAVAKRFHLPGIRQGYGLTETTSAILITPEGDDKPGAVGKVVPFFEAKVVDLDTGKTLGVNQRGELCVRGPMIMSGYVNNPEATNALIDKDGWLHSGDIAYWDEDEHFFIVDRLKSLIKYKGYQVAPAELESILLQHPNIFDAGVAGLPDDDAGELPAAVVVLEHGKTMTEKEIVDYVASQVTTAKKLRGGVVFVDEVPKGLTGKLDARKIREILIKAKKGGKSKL
compound,measurement,setting,value
Cc1sc2ncnc(SCC(=O)NC(=O)c3cccn3C)c2c1C,IC50,[1],3.97 µM (active)
same,EC50,[2],7.84 µM (active)
same,IC50,[3],6.6 µM (active)
C=C(NNc1c(Cl)c(Cl)nc(C(=O)O)c1Cl)c1ccc2cc(OC)ccc2c1,IC50,NADPH oxidase 1,> 17 µM (not active)
Cc1onc(-c2ccccc2Cl)c1C(=O)N1CCN(c2cccc(Cl)c2)CC1,CC50,[4],> 40 µM (active)
CN1CCN(CCNC(=O)c2ccc3nc(-c4ccc(F)cc4)c(-c4ccc(F)cc4)nc3c2)CC1,IC50,[5],4.58 µM (active)
same,IC50,[6],1.58 µM (active)
same,IC50,[7],> 1.11 µM (active)
same,CC50,Vero [8],16.9 µM (active)
same,IC50,Vero [9],21.7 µM (active)
same,IC50,Vero [10],> 25 µM (active)
CCOc1ccc2[nH]c(NCCO)nc2c1,EC50,[11],> 100 µM (not active)
same,EC50,[12],205 nM (active)
same,EC50,[13],> 112 µM (not active)
O=C(Nc1ncnc2c1ncn2C1OC(COC(=O)c2ccccc2)C(F)C1O)c1ccccc1 (stereo unspecified),IC50,[14],> 100 µM (not active)
CCCNC(=O)c1cccc(-n2sc3ccccc3c2=O)c1,IC50,[15],18.4 µM (active)
